In brackets after ≈: the same amount, converted by molar mass. Read-outs that look alike come from different tables or passages of the source.
Experiment: Fulvestrant aqueous solubility in the presence and absence of cyclodextrins (excess drug, shaken 24 h, filtered, HPLC)
Type: physicochemical
Conditions: for Quantity of Fulvestrant Diluted Run 2 / Average Concentration / Quantity of Fulvestrant Diluted Run 1: diluted sample; for solubility at 24 h: 22 °C
Method: The HPLC system used for the chromatographic determination of fulvestrant consisted of a Waters 600E quaternary gradient pump, a Waters 717plus WISP auto-sampler and a Waters 2487 Dual A, Absorbance detector. Separation was performed using a Phenomenex Luna C18 column (250×4.6 mm; 5 urn) (Phenomenex, Torrance, Calif.) (supplied by Separations, South Africa) and a mobile phase consisting of 50% MeCN:22.5% ddH2O :27.5% MeOH. The mobile phase was degassed and filtered prior to use. […] Sample run times were 15 minutes. The UV detector wavelength was set to 280 nm.
(§1) 1 mL of each of the following aqueous solutions was prepared containing 0; 25; 50; 75 and 100 mg/mL ACD in ddHiO. Excess fulvestrant was added to each of these solutions and the samples were shaken for 24 hours on an orbital shaker at 200 rpm and at 22° C. room temperature. Excess fulvestrant was present in all samples at all times. After 24-hours, the samples were filtered through 0.45 μm syringe tip filters, diluted according to requirements and assayed by HPLC.
as §1, with “5; 7.5; 10” for “25; 50; 75”, “15” for “100”, “BCD” for “ACD”, “ddH2O.” for “ddHiO.”
as §1, with “0;” for “0; 25;”, “100; 150; 200; 250; 300; 350” for “75”, “400” for “100”, “MBCD” for “ACD”, “ddH2O.” for “ddHiO.”
as §1, with “0;” for “0; 25;”, “100; 150; 200; 250; 300; 350” for “75”, “400” for “100”, “HPBCD” for “ACD”, “ddH2O.” for “ddHiO.”
as §1, with “0;” for “0; 25;”, “100; 150; 200; 250; 300; 350” for “75”, “400” for “100”, “SBEBCD” for “ACD”, “ddH2O.” for “ddHiO.”
as §1, with “0;” for “0; 25;”, “100; 150;” for “75”, “200” for “100”, “GCD” for “ACD”, “ddHO.” for “ddHiO.”
as §1, with “0;” for “0; 25;”, “100; 150; 200; 250; 300; 350” for “75”, “400” for “100”, “HPGCD” for “ACD”, “ddH2O.” for “ddHiO.”

Quantity of Fulvestrant Diluted Run 2 (150 mg/mL HPBCD): 93.50 µg/mL | True Fulvestrant Concentration (150 mg/mL HPGCD in ddH2O, 22° C., 24 h): 0.203 mg/mL | Average Concentration (150 mg/mL HPGCD): 220.81 µg/mL | Quantity of Fulvestrant Diluted Run 1 (150 mg/mL HPGCD): 220.67 µg/mL | Quantity of Fulvestrant Diluted Run 2 (150 mg/mL HPGCD): 220.94 µg/mL | True Fulvestrant Concentration (150 mg/mL MBCD in ddH2O, 22° C., 24 h): 6.744 mg/mL | Average Concentration (150 mg/mL MBCD): 67.44 µg/mL | Quantity of Fulvestrant Diluted Run 1 (150 mg/mL MBCD): 67.40 µg/mL | Quantity of Fulvestrant Diluted Run 2 (150 mg/mL MBCD): 67.47 µg/mL | True Fulvestrant Concentration (150 mg/mL SBEBCD in ddH2O, 22° C., 24 h): 0.273 mg/mL | Average Concentration (150 mg/mL SBEBCD): 272.92 µg/mL | Quantity of Fulvestrant Diluted Run 1 (150 mg/mL SBEBCD): 273.01 µg/mL | Quantity of Fulvestrant Diluted Run 2 (150 mg/mL SBEBCD): 272.83 µg/mL | True Fulvestrant Concentration (200 mg/mL GCD in ddH2O, 22° C., 24 h): <0.010 mg/mL | Average Concentration (200 mg/mL GCD): <10.00 µg/mL | Quantity of Fulvestrant Diluted Run 1 (200 mg/mL GCD): <10.000 µg/mL | Quantity of Fulvestrant Diluted Run 2 (200 mg/mL GCD): <10.000 µg/mL | True Fulvestrant Concentration (200 mg/mL HPBCD in ddH2O, 22° C., 24 h): 1.563 mg/mL | Average Concentration (200 mg/mL HPBCD): 99.30 µg/mL | Quantity of Fulvestrant Diluted Run 1 (200 mg/mL HPBCD): 156.30 µg/mL | Quantity of Fulvestrant Diluted Run 2 (200 mg/mL HPBCD): 42.30 µg/mL | True Fulvestrant Concentration (200 mg/mL HPGCD in ddH2O, 22° C., 24 h): 0.300 mg/mL | Average Concentration (200 mg/mL HPGCD): 334.71 µg/mL | Quantity of Fulvestrant Diluted Run 1 (200 mg/mL HPGCD): 334.75 µg/mL | Quantity of Fulvestrant Diluted Run 2 (200 mg/mL HPGCD): 334.66 µg/mL | True Fulvestrant Concentration (200 mg/mL MBCD in ddH2O, 22° C., 24 h): 10.694 mg/mL | Average Concentration (200 mg/mL MBCD): 106.94 µg/mL | Quantity of Fulvestrant Diluted Run 1 (200 mg/mL MBCD): 106.87 µg/mL | Quantity of Fulvestrant Diluted Run 2 (200 mg/mL MBCD): 107.01 µg/mL | True Fulvestrant Concentration (200 mg/mL SBEBCD in ddH2O, 22° C., 24 h): 0.399 mg/mL | Average Concentration (200 mg/mL SBEBCD): 398.81 µg/mL | Quantity of Fulvestrant Diluted Run 1 (200 mg/mL SBEBCD): 398.52 µg/mL | Quantity of Fulvestrant Diluted Run 2 (200 mg/mL SBEBCD): 399.09 µg/mL | True Fulvestrant Concentration (250 mg/mL HPBCD in ddH2O, 22° C., 24 h): 2.377 mg/mL | Average Concentration (250 mg/mL HPBCD): 118.84 µg/mL | Quantity of Fulvestrant Diluted Run 1 (250 mg/mL HPBCD): 118.71 µg/mL | Quantity of Fulvestrant Diluted Run 2 (250 mg/mL HPBCD): 118.97 µg/mL | True Fulvestrant Concentration (250 mg/mL HPGCD in ddH2O, 22° C., 24 h): 0.215 mg/mL | Average Concentration (250 mg/mL HPGCD): 473.84 µg/mL | Quantity of Fulvestrant Diluted Run 1 (250 mg/mL HPGCD): 474.68 µg/mL | Quantity of Fulvestrant Diluted Run 2 (250 mg/mL HPGCD): 472.99 µg/mL | True Fulvestrant Concentration (250 mg/mL MBCD in ddH2O, 22° C., 24 h): 17.429 mg/mL | Average Concentration (250 mg/mL MBCD): 174.29 µg/mL | Quantity of Fulvestrant Diluted Run 1 (250 mg/mL MBCD): 174.30 µg/mL | Quantity of Fulvestrant Diluted Run 2 (250 mg/mL MBCD): 174.28 µg/mL | True Fulvestrant Concentration (250 mg/mL SBEBCD in ddH2O, 22° C., 24 h): 0.609 mg/mL | Average Concentration (250 mg/mL SBEBCD): 304.74 µg/mL | Quantity of Fulvestrant Diluted Run 1 (250 mg/mL SBEBCD): 304.32 µg/mL | Quantity of Fulvestrant Diluted Run 2 (250 mg/mL SBEBCD): 305.15 µg/mL | True Fulvestrant Concentration (300 mg/mL HPBCD in ddH2O, 22° C., 24 h): 3.312 mg/mL | Average Concentration (300 mg/mL HPBCD): 165.62 µg/mL | Quantity of Fulvestrant Diluted Run 1 (300 mg/mL HPBCD): 164.70 µg/mL | Quantity of Fulvestrant Diluted Run 2 (300 mg/mL HPBCD): 166.54 µg/mL | True Fulvestrant Concentration (300 mg/mL HPGCD in ddH2O, 22° C., 24 h): 0.603 mg/mL | Average Concentration (300 mg/mL HPGCD): 392.50 µg/mL | Quantity of Fulvestrant Diluted Run 1 (300 mg/mL HPGCD): 400.24 µg/mL | Quantity of Fulvestrant Diluted Run 2 (300 mg/mL HPGCD): 384.76 µg/mL | True Fulvestrant Concentration (300 mg/mL MBCD in ddH2O, 22° C., 24 h): 22.673 mg/mL | Average Concentration (300 mg/mL MBCD): 226.73 µg/mL | Quantity of Fulvestrant Diluted Run 1 (300 mg/mL MBCD): 226.52 µg/mL | Quantity of Fulvestrant Diluted Run 2 (300 mg/mL MBCD): 226.94 µg/mL | True Fulvestrant Concentration (300 mg/mL SBEBCD in ddH2O, 22° C., 24 h): 0.852 mg/mL | Average Concentration (300 mg/mL SBEBCD): 425.89 µg/mL | Quantity of Fulvestrant Diluted Run 1 (300 mg/mL SBEBCD): 425.82 µg/mL | Quantity of Fulvestrant Diluted Run 2 (300 mg/mL SBEBCD): 425.96 µg/mL | True Fulvestrant Concentration (350 mg/mL HPBCD in ddH2O, 22° C., 24 h): 4.305 mg/mL | Average Concentration (350 mg/mL HPBCD): 215.26 µg/mL | Quantity of Fulvestrant Diluted Run 1 (350 mg/mL HPBCD): 215.41 µg/mL | Quantity of Fulvestrant Diluted Run 2 (350 mg/mL HPBCD): 215.10 µg/mL | True Fulvestrant Concentration (350 mg/mL HPGCD in ddH2O, 22° C., 24 h): 0.802 mg/mL | Average Concentration (350 mg/mL HPGCD): 502.97 µg/mL | Quantity of Fulvestrant Diluted Run 1 (350 mg/mL HPGCD): 500.71 µg/mL | Quantity of Fulvestrant Diluted Run 2 (350 mg/mL HPGCD): 505.22 µg/mL | True Fulvestrant Concentration (350 mg/mL MBCD in ddH2O, 22° C., 24 h): 29.275 mg/mL | Average Concentration (350 mg/mL MBCD): 292.75 µg/mL | Quantity of Fulvestrant Diluted Run 1 (350 mg/mL MBCD): 293.21 µg/mL | Quantity of Fulvestrant Diluted Run 2 (350 mg/mL MBCD): 292.29 µg/mL | True Fulvestrant Concentration (350 mg/mL SBEBCD in ddH2O, 22° C., 24 h): 1.140 mg/mL | Average Concentration (350 mg/mL SBEBCD): 379.96 µg/mL | Quantity of Fulvestrant Diluted Run 1 (350 mg/mL SBEBCD): 382.24 µg/mL | Quantity of Fulvestrant Diluted Run 2 (350 mg/mL SBEBCD): 377.67 µg/mL | True Fulvestrant Concentration (400 mg/mL HPBCD in ddH2O, 22° C., 24 h): 5.473 mg/mL | Average Concentration (400 mg/mL HPBCD): 273.67 µg/mL | Quantity of Fulvestrant Diluted Run 1 (400 mg/mL HPBCD): 275.20 µg/mL | Quantity of Fulvestrant Diluted Run 2 (400 mg/mL HPBCD): 272.14 µg/mL | True Fulvestrant Concentration (400 mg/mL HPGCD in ddH2O, 22° C., 24 h): 1.061 mg/mL | Average Concentration (400 mg/mL HPGCD): 468.43 µg/mL | Quantity of Fulvestrant Diluted Run 1 (400 mg/mL HPGCD): 486.39 µg/mL | Quantity of Fulvestrant Diluted Run 2 (400 mg/mL HPGCD): 450.47 µg/mL | True Fulvestrant Concentration (400 mg/mL MBCD in ddH2O, 22° C., 24 h): 35.892 mg/mL | Average Concentration (400 mg/mL MBCD): 358.92 µg/mL | Quantity of Fulvestrant Diluted Run 1 (400 mg/mL MBCD): 359.13 µg/mL | Quantity of Fulvestrant Diluted Run 2 (400 mg/mL MBCD): 358.71 µg/mL | True Fulvestrant Concentration (400 mg/mL SBEBCD in ddH2O, 22° C., 24 h): 1.507 mg/mL | Average Concentration (400 mg/mL SBEBCD): 502.17 µg/mL | Quantity of Fulvestrant Diluted Run 1 (400 mg/mL SBEBCD): 503.13 µg/mL | Quantity of Fulvestrant Diluted Run 2 (400 mg/mL SBEBCD): 501.21 µg/mL | solubility at 24 h (aqueous cyclodextrin solution, aqueous with cosolvent or surfactant or cyclodextrin, thermodynamic from solid, enhancement with ACD, SBEBCD and HPGCD, read-out: fulvestrant aqueous solubilities): 1000 to 2000 µg/mL | solubility at 24 h (aqueous cyclodextrin solution, aqueous with cosolvent or surfactant or cyclodextrin, thermodynamic from solid, in 400 mg/mL HPBCD, read-out: aqueous solubility of fulvestrant): 5500 µg/mL (≈ 9.06 mM) | solubility at 24 h (aqueous cyclodextrin solution, aqueous with cosolvent or surfactant or cyclodextrin, thermodynamic from solid, in 400 mg/mL MBCD, read-out: fulvestrant aqueous solubility): 35900 µg/mL (≈ 59.2 mM) | solubility thermodynamic at 24 h (water (ddH2O) without cyclodextrin, water, thermodynamic from solid, 0 mg/mL SBEBCD in ddH2O, 22° C., 24 h, read-out: True Fulvestrant Concentration): < 10 µg/mL | solubility at 24 h (water (ddH2O), water, thermodynamic from solid, absence of cyclodextrin, read-out: aqueous solubility of fulvestrant): < 10 µg/mL
SMILES: C[C@]12CC[C@@H]3c4ccc(O)cc4C[C@@H](CCCCCCCCC[S+]([O-])CCCC(F)(F)C(F)(F)F)[C@H]3[C@@H]1CC[C@@H]2O (stereo partly drawn) [Fulvestrant, 7-alpha-[9-(4,4,5,5,5-pentafluoropentylsulphinyl)nonyl]estra-1,3,5-(10)-triene-3,17-beta-diol]
